Measurements reported in paper PMC6344423, “Opposing Actions of Adrenocorticotropic Hormone and Glucocorticoids on UCP1-Mediated Respiration in Brown Adipocytes” (Frontiers in Physiology, 2019).
Values belong to the molecule of their own block, whether it stands above or below them. Ends that are not written are not given here.

How the values were obtained:
[1] = system: melanocortin 2 receptor (Mc2r) expression; test: Mc2r gene expression (qRT-PCR) in primary brown adipocytes; assay type: cell-based, mouse; settings: 5 μM Dexa, 0–4 h, n = 4
Description: (§1) Total RNA was isolated using Trisure (Bioline) and purified with SV total RNA Isolation System (Promega). Reverse transcriptase reactions were performed using SensiFAST cDNA Synthesis Kit (Bioline). Quantitative real-time PCR (qRT-PCR) was performed with SYBR green fluorescent dye in 384-well format using LightCycler 480 (Roche). General Transcription Factor IIB (Gtf2b) served as an internal control. To be able to calculate relative gene expression levels of samples, standard reactions containing serial diluted pooled cDNA of all samples (Pure, 1:2, 1:4, 1:8, 1:16, 1:32 and 1:64) as a template were used to establish a standard curve. The RNA abundance of Ucp1 gene was normalized to the housekeeping gene Gtf2b. The following primers were used: […]

[2] = system: cytosolic cAMP in primary brown adipocytes; test: Quantification of cellular cAMP (cAMP-Glo Assay); assay type: cell-based, mouse
Description: Changes in cytosolic cAMP concentrations were determined in primary brown adipocytes in response to ACTH- or isoproterenol stimulation using cAMP-Glo Assay (Promega) following the manufacturer’s instructions.

primary brown adipocytes = test: Microplate-based respirometry (XF96), UCP1-mediated uncoupled respiration; assay type: cell-based, mouse; settings: for Stimulated respiration (UCP1-dependent uncoupled respiration) as fold increase of basal leak respiration, GsPCR ligand screen: primary brown adipocytes (129S6 mice), acute addition after oligomycin 5 μM, medium with 1–2% fatty acid free BSA, 37°C, n = 5, Figures 1B,C; for Stimulated respiration (fold increase of basal leak), ACTH heptapeptide fragments: fragments 1 μM, n = 4, Figures 4A,B,D,E
Description: Oxygen consumption of primary brown adipocytes was measured at 37°C using microplate-based respirometry (XF96 extracellular flux analyzer, Seahorse Bioscience) as described previously ([Li et al., 2014b]) following the subsequent protocol at day 7 of differentiation. Prior to the respiration measurement, primary cells were washed with warmed, unbuffered assay medium (DMEM basal medium supplemented with 25 mM glucose, 31 mM NaCl, 2 mM GlutaMax and 15 mg/l phenol red, pH 7.4) (basal assay medium). Subsequent to the medium replacement with basal assay medium containing 1–2% essentially fatty acid free bovine serum albumin (BSA), cells were incubated at 37°C in a CO2-free incubator for 1 h. Assay reagents were loaded into the drug injections ports of the sensor cartridges at 10X in basal assay medium (no BSA). After assessment of basal oxygen consumption in untreated cells oligomycin (5 μM) was injected to inhibit coupled respiration and to determine basal leak respiration. Next, effector was added to investigate UCP1-dependant uncoupled respiration. By the addition of FCCP (1 μM) maximal respiratory capacity was determined. Lastly, non-mitochondrial oxygen consumption was assessed by blocking mitochondrial respiration with antimycin A (5 μM). For some experiments, cells were pretreated for 1 h with 50 μM H89 (PKA inhibitor), 1–100 μM propranolol (β-adrenergic receptor antagonist), 40 μM Atglistatin (ATGL inhibitor) and 40 μM Hi76-0079 (HSL inhibitor) 1 h prior to the measurement. Oxygen consumption rates were automatically calculated by the Seahorse XF-96 software. Each experiment was repeated at least three times with similar results and five to eight replicate wells for every condition in each independent experiment. Results are predominately expressed as stimulated respiration which is calculated as fold increase of basal leak.
In our first screen, we tested whether these GsPCR ligands can activate oxygen consumption acutely in brown adipocytes. UCP1-mediated uncoupled respiration was quantified in cultured adherent intact primary brown adipocytes, according to a protocol established in our lab ([Li et al., 2014b]). After recording basal respiration and the fraction of coupled and uncoupled respiration, UCP1-dependent respiration was measured. Finally, maximal respiratory capacity and non-mitochondrial oxygen consumption were assessed by adding the uncoupling agent carbonyl cyanide 4-(trifluoromethoxy) phenylhydrazone (FCCP) and antimycin A was added to block the electron transport chain, respectively. All respiration assays were performed in the presence of BSA to buffer free fatty acid (FFA) levels in the respiration medium.

[3] = system: β3-adrenergic receptor (Adrb3) expression; test: Adrb3 gene expression (qRT-PCR) in primary brown adipocytes; assay type: cell-based, mouse; settings: 5 μM Dexa, 0–4 h, n = 4
Description: as §1

[4] = system: Ucp1 mRNA in primary brown adipocytes; test: Ucp1 gene expression analysis (qRT-PCR), brown adipocytes; assay type: cell-based, mouse; settings: for Ucp1 mRNA expression, ACTH heptapeptide fragments: normalized to Gtf2b, n = 4, Figures 4C,F
Description: as §1

[5] = system: Ucp1 gene expression in primary brown adipocytes of Ucp1^ki/ki mice; test: Luciferase assay, FLUC activity as surrogate for Ucp1 expression; assay type: cell-based, mouse; settings: overnight stimulation, normalized to total protein content, n = 3, Figure 1D
Description: After overnight stimulation of primary brown adipocytes of Ucp1^ki/ki mice luciferase activity was assayed using a commercial kit system (Luciferase Assay System Freezer Pack E4030, Promega GmbH). Primary cells were lysed in 1x reporter lysis buffer by shaking for 20 min at room temperature. 10 μl lysate was mixed with 50 μl luciferase assay substrate solution, and the mixture was measured by FB12 in a luminometer (Single Tube Luminometer, Titertek-Berthold GmbH). Bioluminescence readouts were normalized to total protein content.
We then measured FLUC activity in primary brown adipocytes from Ucp1^ki/ki reporter gene mice to determine the effect of the GsPCR ligands on Ucp1 gene expression in response to overnight stimulation. As the expression of Fluc in these cells is driven by Ucp1promoter, FLUC activity served as a surrogate for Ucp1 expression.

release of FFAs = settings: lipolysis as criterion of potency; ref Draper et al., 1973; cited from earlier work
Text: The heptapeptide sequence, Met-Glu-His-Phe-Arg-Trp-Gly, is common to all the adrenocorticotropic (ACTH), melanotropic (MSH), and lipotropic (LPH) hormones.

[6] = system: Ucp1 mRNA and UCP1 protein; set-up: method as in Soumano et al., 2000; van den Beukel et al., 2014; settings: ref Soumano et al., 2000; van den Beukel et al., 2014; cited from earlier work
Text: To address the physiological role of ACTH in brown fat thermogenesis we analyzed the expression of its receptor in BAT of mice in response to cold exposure. […] Basically, ACTH triggers the release of glucocorticoids from the cortex of the adrenal gland. Circulating glucocorticoids exert negative feedback control on the […] ...

[7] = 5 μM Dexa pretreatment, n = 4, Figure 5G

FLUC (luciferase) activity as surrogate for Ucp1 expression [5]: highest FLUC activities
Molecule: secretin: peptide ligand of the secretin receptor
Stimulated respiration (UCP1-dependent uncoupled respiration) as fold increase of basal leak respiration, GsPCR ligand screen (primary brown adipocytes): most prominent induction of UCP1-dependant uncoupled respiration

FLUC (luciferase) activity as surrogate for Ucp1 expression [5]: no effect on FLUC
Molecule: thyroid hormone

FLUC (luciferase) activity as surrogate for Ucp1 expression [5]: moderate rise in FLUC activity
Molecule: α-MSH: α-melanocyte-stimulating hormone, melanocortin
Stimulated respiration (UCP1-dependent uncoupled respiration) as fold increase of basal leak respiration, GsPCR ligand screen (primary brown adipocytes): weakest effects on cellular respiration

FLUC (luciferase) activity as surrogate for Ucp1 expression [5]: highest FLUC activities
Molecule: PACAP: pituitary adenylate cyclase-activating peptide
Stimulated respiration (UCP1-dependent uncoupled respiration) as fold increase of basal leak respiration, GsPCR ligand screen (primary brown adipocytes): weakest effects on cellular respiration

FLUC (luciferase) activity as surrogate for Ucp1 expression [5]: moderate rise in FLUC activity
Molecule: CCCCC[C@H](O)/C=C/[C@H]1[C@H](O)CC(=O)[C@@H]1C/C=C\CCCC(=O)O [PGE2, Prostaglandin E2]

FLUC (luciferase) activity as surrogate for Ucp1 expression [5]: only had minor effects
Molecule: adrenomedullin: ligand for calcitonin receptor-like receptor (CALCRL)

FLUC (luciferase) activity as surrogate for Ucp1 expression [5]: highest FLUC activities
Molecule: PTH: parathyroid hormone, ligand of PTHR
Stimulated respiration (UCP1-dependent uncoupled respiration) as fold increase of basal leak respiration, GsPCR ligand screen (primary brown adipocytes): modest compared to ISO

Further lines, the molecule ahead of its results:

Molecule: C[C@@H]1C[C@H]2[C@@H]3CCC4=CC(=O)C=C[C@]4(C)[C@@]3(F)[C@@H](O)C[C@]2(C)[C@@]1(O)C(=O)CO [Dexa, dexamethasone]
Effect of Dexa on expression of the melanocortin 2 receptor [1]: not a consequence of reduced or increased expression
Effect of Dexa on ACTH induced rise in cellular cAMP [2, 7]: no such effect was observed for ACTH
Effect of Dexa on ISO induced rise in cellular cAMP [2, 7]: attenuated the ISO induced rise in cellular cAMP levels
Effect of Dexa pretreatment on ACTH-induced respiration (primary brown adipocytes; 5 μM Dexa, 0–4 h, n = 4, Figure 5C): unaffected
Effect of Dexa pretreatment on ISO-stimulated respiration (primary brown adipocytes; 5 μM Dexa, 0–4 h, with increasing exposure time, n = 4, Figure 5C): attenuated ISO-stimulated respiration
Effect of Dexa on respiration, one-hour pre-treatment or acute stimulation (primary brown adipocytes; 5 μM Dexa, n = 4, Figure 5B): had no effect on respiration
Effect of DEXA treatment on thermogenic response, 1 h (primary brown adipocytes; DEXA treatment for 1 h): had no effect
Effect of DEXA treatment on thermogenic response to ISO, 4 h (primary brown adipocytes; extended DEXA treatment for 4 h, compared with 2 h): more pronounced
Effect of DEXA treatment on thermogenic response to ISO, 2 h (primary brown adipocytes; two hours of DEXA treatment): significant downregulation of the thermogenic response to ISO
Effect of Dexa on expression of the β3-adrenergic receptor [3]: not a consequence of reduced or increased expression
Effect of Dexa on Ucp1 expression ([4]; 4-h treatment, 5 μM Dexa, n = 4): no significant effect on Ucp1 expression

Molecule: CC(C)NCC(O)COc1cccc2ccccc12 (stereo not drawn) [propranolol]
Effect of propranolol pre-treatment on ACTH stimulated respiration (primary brown adipocytes; 1 h pretreatment, 1–100 μM propranolol, ACTH 1 μM, n = 4, Figure 2B): did not attenuate ACTH stimulated respiration
Effect of propranolol pre-treatment on ISO stimulated respiration (primary brown adipocytes; 1 h pretreatment, 1–100 μM propranolol, ISO 0.5 μM, n = 4, Figure 2B): blocking the effect of ISO in a dose-dependent manner

Molecule: CCNC(=O)[C@H]1O[C@@H](n2cnc3c(N)nc(NCCc4ccc(CCC(=O)O)cc4)nc32)[C@H](O)[C@@H]1O [CGS21680]
FLUC (luciferase) activity as surrogate for Ucp1 expression [5]: no effect on FLUC

Molecule: O=S(=O)(NCCNC/C=C/c1ccc(Br)cc1)c1cccc2cnccc12 [H89]
Effect of PKA inhibitor on ACTH-stimulated respiration (primary brown adipocytes; H89 50 μM, ACTH 1 μM, n = 4, Figure 2E): completely blocked the effect on respiration of ACTH

Molecule: MRHFRWG [synACTH(4-10), mutant ACTH fragment, synthetic analog of ACTH(4-10) with amino acid exchange from Glu to Arg]
Stimulated respiration (fold increase of basal leak), ACTH heptapeptide fragments (primary brown adipocytes): mildly increased respiration
Ucp1 mRNA expression, ACTH heptapeptide fragments [4]: comparable to that of the natural heptapeptide
Activity on the release of FFAs compared to the natural ACTH core sequence (release of FFAs): fourfold increased activity on the release of FFAs

Molecule: CC(C)NCC(O)c1ccc(O)c(O)c1 (stereo not drawn) [ISO, isoproterenol]
EC50 ([2]; Mus musculus, Adipocyte, 0.5 h, stimulation for 30 min, n = 3, non-linear regression, Figure 2D): 9.41 nM

Molecule: C[C@]12C[C@H](O)[C@H]3[C@@H](CCC4=CC(=O)CC[C@@]43C)[C@@H]1CC[C@@H]2C(=O)CO [corticosterone]
Effect on Ucp1 mRNA and UCP1 protein in response to adrenergic stimulation and ACTH treatment [6]: reduces Ucp1 mRNA and UCP1 protein

Molecule: Met-Glu-His-Phe-Arg-Trp-Gly [ACTH(4-10)]
Stimulated respiration (fold increase of basal leak), ACTH heptapeptide fragments (primary brown adipocytes): no impact on respiration
Ucp1 mRNA expression, ACTH heptapeptide fragments [4]: significantly increased Ucp1 mRNA expression
